Measurements as given in patent US20180250404A1, “HIGH-Z NANOPARTICLES AND THE USE THEREOF IN RADIATION THERAPY” (Board of Regents, The University of Texas System, priority 2015, published 2018).
“Also recorded” adds a separate entry of the source.

Legend:
HN5 cells [1] = assay: Clonogenic survival with inhibitors of endocytosis steps plus cGNR; type: cell-based; settings: HN5, 250 kVp; inhibitor pre-treatment 1 hr, then cGNR 24 hr; CPZ 5 μg/ml, BAF-A1 100 nM, LAC 1 μM, CHQ 5 μM
Description: (§1) FIGS. 5A-5G: Blocking endocytosis steps modulates radiosensitization by cGNRs. […] The radiation dose enhancement factor (DEF) at 10% cell survival was cGNR—1.08, CPZ+cGNR—1.005, BAF-A1+cGNR—1.19, LAC+cGNR—1.16, and CHQ+cGNR—1.20. (B) Intracellular localization cGNR in HN5 cells imaged by TEM 24 hrs after treatment with cGNRs in the presence of (a) PBS, (b) CPZ, (c) BAF-A1, (d) LAC or (e) CHQ for 1 hr. […] (E) Reactive oxygen species measured by CellROX assay kit following treatment of HN5 cells with 2 Gy radiation in the absence or presence of specific inhibitors of internalization with and without cGNRs. […] (F) Elemental gold content of cells analyzed by inductively coupled plasma mass spectrometry.
(§2) To study the effect of each step of cGNR internalization on radiosensitization, each step of the endocytotic pathway (energy-dependent receptor-mediated endocytosis, early endosomal entrapment, stasis in the late endosomal compartment, and endolysosomal fusion) was blocked using pharmacologic inhibitors in HN5 cells.

HN5 cells [2] = assay: γ-H2AX foci formation (DNA damage); type: cell-based; settings: inhibitor pretreatment, cGNR 24h, 2 Gy (250 kV, 15 mA)
Description: as §1
Therefore, γ-H2AX was evaluated in HN5 cells pretreated with different pharmacological inhibitors and incubated with cGNR for 24h followed by 2 Gy of radiation (250 kV, 15 mA) (FIG. 5C).

HN5 cells [3] = assay: Elemental gold content of cells by ICP-MS; type: cell-based; settings: 24 h treatment
Description: as §1

HN5 cells [4] = assay: Reactive oxygen species by CellROX assay kit; type: cell-based; settings: 2 Gy radiation, with cGNRs, with or without inhibitors
Description: as §1

HN5 cells [5] = assay: Intracellular localization of cGNR by TEM; type: cell-based; settings: TEM 24 hrs after cGNRs, inhibitor for 1 hr
Description: as §1, §2

HN5 cells [6] = assay: Micronuclei per 1000 binucleated cells; type: cell-based; settings: cGNRs 24 hrs and radiation, inhibitor pretreatment 1 hr
Description: as §1
FIG. 10A-10C: Number of micronuclei per 1000 binucleated cells broken down as (A) one, (B) two, or (C) multiple. Cells were treated with cGNRs and radiation in the absence or presence of specific inhibitors of internalization.

HN5 xenografts = assay: Tumor regrowth delay of HN5 xenografts with radiation; type: in vivo, nu/nu mice; settings: CHQ 6 hrs and 24 hrs before radiation, with cGNRs; p=0.02
Description: as §1

Row | SMILES | radiation dose enhancement factor (DEF) at 10% cell survival (HN5 cells [1]) | γ-H2AX foci / DNA damage (HN5 cells [2]) | γ-H2AX foci / DNA damage (HN5 cells [2]; listed as CPZ) | cellular gold content / uptake of cGNR (HN5 cells [3]) | intracellular reactive oxygen species (HN5 cells [4]) | intracellular localization of cGNR (HN5 cells [5]) | γ-H2AX foci / DNA damage (HN5 cells [2]; listed as BAF-A1) | γ-H2AX foci / DNA damage (HN5 cells [2]; listed as Bafilomycin) | cellular gold content / uptake of cGNR (HN5 cells [3]; listed as BAF-A1) | intracellular reactive oxygen species (HN5 cells [4]; listed as BAF-A1) | micronuclei per 1000 binucleated cells (HN5 cells [6]) | micronuclei per 1000 binucleated cells (HN5 cells [6]; listed as BAF-A1) | time to tumor volume quadrupling (HN5 xenografts) | γ-H2AX foci / DNA damage (HN5 cells [2]; listed as CHQ) | cellular gold content / uptake of cGNR (HN5 cells [3]; listed as CHQ) | γ-H2AX foci / DNA damage (HN5 cells [2]; listed as LAC) | cellular gold content / uptake of cGNR (HN5 cells [3]; listed as LAC) | intracellular reactive oxygen species (HN5 cells [4]; listed as LAC) | micronuclei per 1000 binucleated cells (HN5 cells [6]; listed as LAC)
1 | CN(C)CCCN1c2ccccc2Sc2ccc(Cl)cc21 [chlorpromazine] | 1.005 | abrogated the effect of cGNR treatment | not | significantly (p<0.001) inhibited the cellular uptake of cGNRs | reduced the intracellular ROS | blocked internalization of cGNRs | – | – | – | – | – | – | – | – | – | – | – | – | –
2 | CO/C1=C\C(C)=C\[C@@H](C)[C@@H](O)[C@@H](C)C/C(C)=C/C=C/[C@H](OC)[C@@H]([C@@H](C)[C@@H](O)[C@H](C)[C@@]2(O)C[C@@H](O)[C@H](C)[C@@H](C(C)C)O2)OC1=O [bafilomycin A, bafilomycin A1] | 1.19 | greatest increase in DNA damage | – | no significant differences in the cellular uptake of cGNR | further enhanced the intracellular ROS | unclustered cGNRs | increased foci formation | further enhanced the DNA damage | no different | even greater enhancement of oxidative stress | significantly higher number of MNBC | enhancement in radiosensitization; also recorded: significant increase in radiation-induced micronuclei formation | – | – | – | – | – | – | –
3 | CCN(CC)CCCC(C)Nc1ccnc2cc(Cl)ccc12 (stereo not shown) [chloroquine] | 1.2 | further enhanced the DNA damage | – | no significant differences in the cellular uptake of cGNR | – | unclustered cGNRs | – | – | – | – | – | – | statistically significant increase in time to tumor volume quadrupling | increased foci formation | no different | – | – | – | –
4 | CC(=O)N[C@@H](CSC(=O)[C@]1([C@@H](O)C(C)C)NC(=O)[C@H](C)[C@@H]1O)C(=O)O [lactacystin] | 1.16 | further enhanced the DNA damage | – | no significant differences in the cellular uptake of cGNR | further enhanced the intracellular ROS | unclustered cGNRs | – | – | – | – | significantly higher number of MNBC | – | – | – | – | increased foci formation | no different | even greater enhancement of oxidative stress | enhancement in radiosensitization; also recorded: significant increase in radiation-induced micronuclei formation
